According to patent US6881741B2 (ViroChem Pharma Inc., priority 2001, dated 2005):

target: recombinant HCV NS5B (HCV RNA-dependent RNA polymerase) (Hepatitis C virus genotype 1b, UniProt P26663); assay: biochemical; conditions: related polymerase activity (Example 27 list); read-out: IC50
Sequence (P26663 2420-3010 limits assumed): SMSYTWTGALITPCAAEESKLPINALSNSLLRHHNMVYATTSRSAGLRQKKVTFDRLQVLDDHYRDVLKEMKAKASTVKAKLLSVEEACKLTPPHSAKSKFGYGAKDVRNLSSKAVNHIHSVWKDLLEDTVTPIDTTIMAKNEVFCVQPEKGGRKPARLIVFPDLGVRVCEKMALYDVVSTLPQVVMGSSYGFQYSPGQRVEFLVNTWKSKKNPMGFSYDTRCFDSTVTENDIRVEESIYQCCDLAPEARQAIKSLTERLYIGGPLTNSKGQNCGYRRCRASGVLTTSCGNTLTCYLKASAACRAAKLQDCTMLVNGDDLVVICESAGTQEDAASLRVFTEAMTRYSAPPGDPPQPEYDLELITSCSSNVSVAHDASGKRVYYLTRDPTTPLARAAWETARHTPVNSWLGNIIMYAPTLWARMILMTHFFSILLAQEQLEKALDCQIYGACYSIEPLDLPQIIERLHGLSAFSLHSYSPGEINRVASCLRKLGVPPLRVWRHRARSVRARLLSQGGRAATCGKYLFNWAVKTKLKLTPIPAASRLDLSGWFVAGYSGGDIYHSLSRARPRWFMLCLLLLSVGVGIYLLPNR

| Structure (SMILES) | IC50 |
| --- | --- |
| Cc1ccccc1S(=O)(=O)Nc1cc(-c2cccc3cccnc23)sc1C(=O)O [Compound 61, 5-QUINOLIN-8-YL-3-(TOLUENE-2-SULFONYLAMINO)-THIOPHENE-2-CARBOXYLIC ACID] | > 20 µM |
| Cc1ccccc1S(=O)(=O)Nc1cc(-c2ccccc2)sc1C(=O)O [Compound 62, 5-PHENYL-3-(TOLUENE-2-SULFONYLAMINO)-THIOPHENE-2-CARBOXYLIC ACID] | < 5 µM |
| Cc1ccccc1S(=O)(=O)Nc1cc(-c2cccc([N+](=O)[O-])c2)sc1C(=O)O [Compound 63, 5-(3-NITRO-PHENYL)-3-(TOLUENE-2-SULFONYLAMINO)-THIOPHENE-2-CARBOXYLIC ACID] | < 5 µM |
| Cc1cccc(-c2cc(NS(=O)(=O)c3ccccc3C)c(C(=O)O)s2)c1 [Compound 64, 3-(TOLUENE-2-SULFONYLAMINO)-5-M-TOLYL-THIOPHENE-2-CARBOXYLIC ACID] | < 5 µM |
| Cc1ccccc1S(=O)(=O)Nc1cc(-c2cccc(Cl)c2)sc1C(=O)O [Compound 65, 5-(3-CHLORO-PHENYL)-3-(TOLUENE-2-SULFONYLAMINO)-THIOPHENE-2-CARBOXYLIC ACID] | < 5 µM |
| Cc1ccccc1S(=O)(=O)Nc1cc(-c2ccc(F)cc2)sc1C(=O)O [Compound 66, 5-(4-FLUORO-PHENYL)-3-(TOLUENE-2-SULFONYLAMINO)-THIOPHENE-2-CARBOXYLIC ACID] | < 5 µM |
| Cc1ccccc1S(=O)(=O)Nc1cc(-c2cccc(F)c2)sc1C(=O)O [Compound 67, 5-(3-FLUORO-PHENYL)-3-(TOLUENE-2-SULFONYLAMINO)-THIOPHENE-2-CARBOXYLIC ACID] | < 5 µM |
| Cc1ccccc1S(=O)(=O)Nc1cc(-c2ccc(Cl)cc2)sc1C(=O)O [Compound 68, 5-(4-CHLORO-PHENYL)-3-(TOLUENE-2-SULFONYLAMINO)-THIOPHENE-2-CARBOXYLIC ACID] | < 5 µM |
| Cc1ccccc1S(=O)(=O)Nc1cc(-c2cc(F)cc(F)c2)sc1C(=O)O [Compound 69, 5-(3,5-DIFLUORO-PHENYL)-3-(TOLUENE-2-SULFONYLAMINO)-THIOPHENE-2-CARBOXYLIC ACID] | < 5 µM |
| Cc1ccccc1S(=O)(=O)Nc1cc(-c2ccc(F)c(F)c2)sc1C(=O)O [Compound 70, 5-(3,4-DIFLUORO-PHENYL)-3-(TOLUENE-2-SULFONYLAMINO)-THIOPHENE-2-CARBOXYLIC ACID] | < 5 µM |
| C=Cc1cc(NS(=O)(=O)c2ccccc2C)c(C(=O)O)s1 [Compound 71, 3-(TOLUENE-2-SULFONYLAMINO)-5-VINYL-THIOPHENE-2-CARBOXYLIC ACID] | 5 to 20 µM |
| O=C(Nc1cc(-c2ccccc2)sc1C(=O)O)c1ccc(Cl)cc1 [Compound 72, 3-(4-CHLORO-BENZOYLAMINO)-5-PHENYL-THIOPHENE-2-CARBOXYLIC ACID] | 5 to 20 µM |
| CN(C(=O)c1ccc(Cl)cc1)c1cc(-c2ccccc2)sc1C(=O)O [Compound 73, 3-[(4-CHLORO-BENZOYL)-METHYL-AMINO]-5-PHENYL-THIOPHENE-2-CARBOXYLIC ACID] | < 5 µM |
| O=C(Nc1cc(-c2ccccc2)sc1C(=O)O)c1cccs1 [Compound 74, 5-PHENYL-3-[(THIOPHENE-2-CARBONYL)-AMINO]-THIOPHENE-2-CARBOXYLIC ACID] | 5 to 20 µM |
| CN(C(=O)c1cccs1)c1cc(-c2ccccc2)sc1C(=O)O [Compound 75, 3-(METHYL-(THIOPHENE-2-CARBONYL)-AMINO]-5-PHENYL-THIOPHENE-2-CARBOXYLIC ACID] | 5 to 20 µM |
| O=C(O)c1sc(-c2ccccc2)cc1NS(=O)(=O)c1ccccc1Br [Compound 76, 3-(2-BROMO-BENZENESULFONYLAMINO)-5-PHENYL-THIOPHENE-2-CARBOXYLIC ACID] | < 5 µM |
| O=C(Nc1cc(-c2ccccc2)sc1C(=O)O)c1ccc(F)cc1F [Compound 77, 3-(2,4-DIFLUORO-BENZOYLAMINO)-5-PHENYL-THIOPHENE-2-CARBOXYLIC ACID] | > 20 µM |
| CN(C(=O)c1ccc(F)cc1F)c1cc(-c2ccccc2)sc1C(=O)O [Compound 78, 3-[(2,4-DIFLUORO-BENZOYL)-METHYL-AMINO]-5-PHENYL-THIOPHENE-2-CARBOXYLIC ACID] | 5 to 20 µM |
| Cc1ccccc1S(=O)(=O)Nc1cc(C#C[Si](C)(C)C)sc1C(=O)O [Compound 79] | < 5 µM |
| C#Cc1cc(NS(=O)(=O)c2ccccc2C)c(C(=O)O)s1 [Compound 80, 5-ETHYNYL-3-(TOLUENE-2-SULFONYLAMINO)-THIOPHENE-2-CARBOXYLIC ACID] | 5 to 20 µM |
| Cc1ccccc1S(=O)(=O)Nc1cc(-c2cccc(OC(F)(F)F)c2)sc1C(=O)O [Compound 81, 3-(TOLUENE-2-SULFONYLAMINO)-5-(3-TRIFLUOROMETHOXY-PHENYL)-THIOPHENE-2-CARBOXYLIC ACID] | 5 to 20 µM |
| Cc1ccccc1S(=O)(=O)Nc1cc(C(=O)c2ccccc2)sc1C(=O)O [Compound 82, 5-BENZOYL-3-(TOLUENE-2-SULFONYLAMINO)-THIOPHENE-2-CARBOXYLIC ACID] | 5 to 20 µM |

| Structure (SMILES) | IC50 |
| --- | --- |
| Cc1ccccc1S(=O)(=O)Nc1cc(-c2ccc(C#N)cc2)sc1C(=O)O [Compound 83, 5-(4-CYANO-PHENYL)-3-(TOLUENE-2-SULFONYLAMINO)-THIOPHENE-2-CARBOXYLIC ACID] | < 5 µM |
| Cc1ccccc1S(=O)(=O)Nc1cc(-c2ccc(Cl)c(Cl)c2)sc1C(=O)O [Compound 85, 5-(3,4-DICHLORO-PHENYL)-3-(TOLUENE-2-SULFONYLAMINO)-THIOPHENE-2-CARBOXYLIC ACID] | 5 to 20 µM |
| Cc1ccccc1S(=O)(=O)Nc1cc(-c2ccncc2)sc1C(=O)O [Compound 86, 5-PYRIDIN-4-YL-3-(TOLUENE-2-SULFONYLAMINO)-THIOPHENE-2-CARBOXYLIC ACID] | < 5 µM |
| Cc1ccccc1S(=O)(=O)Nc1cc(-c2cccnc2)sc1C(=O)O [Compound 87, 5-PYRIDIN-3-YL-3-(TOLUENE-2-SULFONYLAMINO)-THIOPHENE-2-CARBOXYLIC ACID] | < 5 µM |
| Cc1ccccc1S(=O)(=O)Nc1cc(-c2ccc(C(F)(F)F)cc2)sc1C(=O)O [Compound 88, 3-(TOLUENE-2-SULFONYLAMINO)-5-(4-TRIFLUOROMETHYL-PHENYL)-THIOPHENE-2-CARBOXYLIC ACID] | < 5 µM |
| Cc1ccccc1S(=O)(=O)Nc1cc(-c2ccc(S(C)(=O)=O)cc2)sc1C(=O)O [Compound 89, 5-(4-METHANESULFONYL-PHENYL)-3-(TOLUENE-2-SULFONYLAMINO)-THIOPHENE-2-CARBOXYLIC ACID] | < 5 µM |
| CC(=O)Nc1cccc(-c2cc(NS(=O)(=O)c3ccccc3C)c(C(=O)O)s2)c1 [Compound 90, 5-(3-ACETYLAMINO-PHENYL)-3-(TOLUENE-2-SULFONYLAMINO)-THIOPHENE-2-CARBOXYLIC ACID] | 5 to 20 µM |
| Cc1ccccc1S(=O)(=O)Nc1cc(-c2ccc(F)c(Cl)c2)sc1C(=O)O [Compound 91, 5-(3-CHLORO-4-FLUORO-PHENYL)-3-(TOLUENE-2-SULFONYLAMINO)-THIOPHENE-2-CARBOXYLIC ACID] | 5 to 20 µM |
| Cc1ccc(C(=O)Nc2cc(-c3ccccc3)sc2C(=O)O)cc1 [Compound 92, 3-(4-METHYL-BENZOYLAMINO)-5-PHENYL-THIOPHENE-2-CARBOXYLIC ACID] | 5 to 20 µM |
| Cc1ccc(C(=O)N(C)c2cc(-c3ccccc3)sc2C(=O)O)cc1 [Compound 93, 3-[METHYL-(4-METHYL-BENZOYL)-AMINO]-5-PHENYL-THIOPHENE-2-CARBOXYLIC ACID] | < 5 µM |
| Cc1noc(C)c1S(=O)(=O)Nc1cc(-c2ccccc2)sc1C(=O)O [Compound 94, 3-(3,5-DIMETHYL-ISOXAZOLE-4-SULFONYLAMINO)-5-PHENYL-THIOPHENE-2-CARBOXYLIC ACID] | 5 to 20 µM |
| CN(C(=O)c1ccccc1Cl)c1cc(-c2ccccc2)sc1C(=O)O [Compound 95, 3-[(2-CHLORO-BENZOYL)-METHYL-AMINO]-5-PHENYL-THIOPHENE-2-CARBOXYLIC ACID] | 5 to 20 µM |
| Cc1ccccc1C(=O)Nc1cc(-c2ccccc2)sc1C(=O)O [Compound 96, 3-(2-METHYL-BENZOYLAMINO)-5-PHENYL-THIOPHENE-2-CARBOXYLIC ACID] | 5 to 20 µM |
| Cc1ccccc1C(=O)N(C)c1cc(-c2ccccc2)sc1C(=O)O [Compound 97, 3-[METHYL-(2-METHYL-BENZOYL)-AMINO]-5-PHENYL-THIOPHENE-2-CARBOXYLIC ACID] | > 20 µM |
| O=C(O)c1sc(-c2ccccc2)cc1NS(=O)(=O)c1ccc(C(F)(F)F)cn1 [Compound 98, 5-PHENYL-3-(5-TRIFLUOROMETHYL-PYRIDINE-2-SULFONYLAMINO)-THIOPHENE-2-CARBOXYLIC ACID] | 5 to 20 µM |
| Cc1ccc(C)c(S(=O)(=O)Nc2cc(-c3ccc([N+](=O)[O-])cc3)sc2C(=O)O)c1 [Compound 100, 3-(2,5-DIMETHYL-BENZENESULFONYLAMINO)-5-(4-NITRO-PHENYL)-THIOPHENE-2-CARBOXYLIC ACID] | < 5 µM |
| Cc1ccccc1S(=O)(=O)Nc1cc(-c2ccccc2F)sc1C(=O)O [Compound 101, 5-(2-FLUORO-PHENYL)-3-(TOLUENE-2-SULFONYLAMINO)-THIOPHENE-2-CARBOXYLIC ACID] | < 5 µM |
| Cc1ccccc1S(=O)(=O)Nc1cc(-c2ccccc2C#N)sc1C(=O)O [Compound 102, 5-(2-CYANO-PHENYL)-3-(TOLUENE-2-SULFONYLAMINO)-THIOPHENE-2-CARBOXYLIC ACID] | 5 to 20 µM |
| CCOC(=O)c1ccccc1-c1cc(NS(=O)(=O)c2ccccc2C)c(C(=O)O)s1 [Compound 103, 5-(2-ETHOXYCARBONYL-PHENYL)-3-(TOLUENE-2-SULFONYLAMINO)-THIOPHENE-2-CARBOXYLIC ACID] | 5 to 20 µM |
| COc1ccccc1-c1cc(NS(=O)(=O)c2ccccc2C)c(C(=O)O)s1 [Compound 104, 5-(2-METHOXY-PHENYL)-3-(TOLUENE-2-SULFONYLAMINO)-THIOPHENE-2-CARBOXYLIC ACID] | 5 to 20 µM |
| Cc1ccccc1S(=O)(=O)Nc1cc(-c2sccc2C)sc1C(=O)O [Compound 105, 3′-METHYL-4-(TOLUENE-2-SULFONYLAMINO)-[2,2′]BITHIOPHENYL-5-CARBOXYLIC ACID] | 5 to 20 µM |
| Cc1ccccc1S(=O)(=O)Nc1cc(-c2ccccc2C(F)(F)F)sc1C(=O)O [Compound 106, 3-(TOLUENE-2-SULFONYLAMINO)-5-(2-TRIFLUOROMETHYL-PHENYL)-THIOPHENE-2-CARBOXYLIC ACID] | 5 to 20 µM |
